# Measured values from patent US11597703B2, “Caspase inhibitors and methods of use thereof” (Histogen Inc., priority 2019, dated 2023).
# How the values were obtained:
# Caspase-3 = target: T1, Caspase-3 (Homo sapiens, UniProt P42574); assay: Caspase-3 enzymatic inhibition assay, IC50; format: biochemical; settings: read-out: Caspase 3 enzyme inhibition IC50
# T1 construct: purchased Enzo Biosciences
# T1 sequence (P42574 29-175 limits assumed): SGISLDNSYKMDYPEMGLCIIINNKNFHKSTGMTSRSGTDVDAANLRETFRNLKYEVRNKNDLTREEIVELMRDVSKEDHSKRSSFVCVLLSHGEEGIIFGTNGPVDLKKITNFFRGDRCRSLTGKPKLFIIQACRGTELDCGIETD
# T1 sequence (P42574 176-277 limits assumed): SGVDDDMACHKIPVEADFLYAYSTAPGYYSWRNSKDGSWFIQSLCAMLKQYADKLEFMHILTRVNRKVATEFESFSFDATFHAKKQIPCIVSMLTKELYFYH
# Protocol: (§1) Human caspases were purchased from Enzo Biosciences and used according to the manufacturer's instructions. An exemplary caspase assay, for Caspase-1, is provided below:
# (§2) Enzymatic assays were conducted for Caspase-3, 6 and 7 activity according to the manufacture's instructions.
# Caspase 7 = target: T2, Caspase 7 (Homo sapiens, UniProt P55210); assay: Caspase 7 enzymatic inhibition assay, IC50; format: biochemical; settings: read-out: Caspase 7 enzyme inhibition IC50
# T2 construct: purchased Enzo Biosciences
# T2 sequence (P55210 24-198 limits assumed): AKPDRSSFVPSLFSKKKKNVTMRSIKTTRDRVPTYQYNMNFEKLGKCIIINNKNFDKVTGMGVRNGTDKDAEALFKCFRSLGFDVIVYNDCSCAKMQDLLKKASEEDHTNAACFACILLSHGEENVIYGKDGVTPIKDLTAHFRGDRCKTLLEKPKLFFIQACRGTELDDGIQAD
# T2 sequence (P55210 207-303 limits assumed): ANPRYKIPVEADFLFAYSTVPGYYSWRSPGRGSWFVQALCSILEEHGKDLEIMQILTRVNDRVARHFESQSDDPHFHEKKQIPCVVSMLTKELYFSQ
# Protocol: as §1, §2
# Caspase-1 = target: T3, Caspase-1 (Homo sapiens, UniProt P29466); assay: Caspase-1 enzyme inhibition assay (Ac-YVAD-pNA substrate), IC50; format: biochemical
# T3 construct: purchased Enzo Biosciences
# T3 sequence (P29466 120-297 limits assumed): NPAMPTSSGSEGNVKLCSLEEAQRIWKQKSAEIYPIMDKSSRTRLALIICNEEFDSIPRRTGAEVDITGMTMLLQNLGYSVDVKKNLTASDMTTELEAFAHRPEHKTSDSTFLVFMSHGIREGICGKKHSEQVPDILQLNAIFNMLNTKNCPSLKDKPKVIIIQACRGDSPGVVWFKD
# T3 sequence (P29466 317-404 limits assumed): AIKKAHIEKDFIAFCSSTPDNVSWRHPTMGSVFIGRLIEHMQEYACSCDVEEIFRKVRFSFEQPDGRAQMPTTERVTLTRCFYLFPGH
# Protocol: as §1
# Caspase-1 was diluted to 10 U/μl in assay buffer consisting of 50 mM HEPES, pH 7.4, 100 mM NaCl, 0.1% CHAPS, 1 mM EDTA, 10% glycerol and 10 mM DTT.
# 45 μl of assay buffer was added into ½ volume microtiter plate. The plate was allowed to equilibrate to assay temperature. 5 μl of Caspase-1 (10 U/μl) was added to each appropriate well. Two 2 blank wells containing assay buffer alone without Caspase-1 were included on the plate.
# The reaction was started by the addition of 50 μl Ac-YVAD-pNA substrate, for a final substrate concentration of 200 μM. The reaction was continuously monitored at 405 nm. The data was graphed as OD405 nm vs time, and the slope was determined over the linear portion of the curve. The rates in OD/min were converted to substrate/min using an extinction coefficient for p-nitroaniline of 10,500M-1 cm-1, and were adjusted for pathlength of sample. […]
# Caspase 6 = target: T4, Caspase 6 (Homo sapiens, UniProt P55212); assay: Caspase 6 enzymatic inhibition assay, IC50; format: biochemical; settings: read-out: Caspase 6 enzyme inhibition IC50
# T4 construct: purchased Enzo Biosciences
# T4 sequence (P55212 24-179 limits assumed): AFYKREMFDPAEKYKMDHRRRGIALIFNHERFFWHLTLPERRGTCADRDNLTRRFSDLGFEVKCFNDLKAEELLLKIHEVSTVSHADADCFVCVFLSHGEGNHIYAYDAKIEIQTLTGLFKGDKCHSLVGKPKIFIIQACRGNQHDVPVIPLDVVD
# T4 sequence (P55212 194-293 limits assumed): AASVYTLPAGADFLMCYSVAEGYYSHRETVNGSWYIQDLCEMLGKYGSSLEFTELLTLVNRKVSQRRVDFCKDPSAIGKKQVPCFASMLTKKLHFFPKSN
# Protocol: as §1, §2
# [1] = Rodent model of ulcerative colitis induced by TNBS; format: in vivo, Sprague-Dawley rats
# Protocol: Compounds of the present invention were tested by oral administration in a rodent model of ulcerative colitis (UC). Ulcerative colitis was induced in Sprague-Dawley rats by instillation of 48 mg/kg […], (TNBS), through the rectum. Testing included 4 active treatment groups and one vehicle control group.
# Effect of TNBS-Induced UC in Vehicle Treated Control Group, (Group 1):
# Rats were administered of 0.5% vehicle carboxy methylcellulose, (CMC), twice daily starting 24 hours after the instillation of TNBS.
# At the termination of the study on DAY 7, the average colon weight in the diseased rats was 5.904±2.208 g, the average colon length was 11.0±1.4 cm and the average distal colon width was 3.1±1.0 cm. Severe adhesions involving multiple intestinal loops, severe stricture resulting in proximal colon distension, ulcers of 6.4±0.4 cm in length, and colonic wall thickness of 3.5±0.8 mm combined to yield an overall colonic score of 11.5±0.8 in the diseased rats. […] Subacute inflammation (sub/mucosal and transmural/serosal were graded separately) was characterized by infiltration and aggregation of neutrophils, eosinophils, lymphocytes, plasma cells, and macrophages. Mucosal necrosis was characterized by damage to, necrosis of, or complete loss of colonic glands. Erosions were characterized by coagulative necrosis or loss of surface epithelium superficial to the muscularis mucosae. Submucosal edema was characterized by expansion of the submucosa by clear space or pale eosinophilic fluid, variably accompanied by dilation of lymphatic vessels and similar edematous expansion of the lamina propria. Epithelial hyperplasia was characterized by elongation of colonic glands and increased numbers of epithelial mitotic figures.
# [2] = 10 mg/kg once daily oral, starting 24 hours after TNBS
# [3] = Group 2, prednisolone 10 mg/kg once daily oral, DAY 7
smiles,measurement,setting,value
"COc1cccc(NC(=O)C(=O)N[C@@H](C)C(=O)N[C@@H](CCC(=O)O)C(=O)COc2c(F)c(F)cc(F)c2F)c1 [Example 23, (S)-4-((S)-2-(2-((3-methyoxyphenyl)amino)-2-oxoacetamido)propanamido)-5-oxo-6-(2,3,5,6-tetrafluorophenoxy)hexanoic acid]",IC50,Caspase-3,≥ 1 µM
same,IC50,Caspase 7,≥ 1 µM
same,IC50,Caspase-1,≤ 0.01 µM
same,IC50,Caspase 6,≥ 1 µM
"C[C@H](NC(=O)C(=O)Nc1ccc(Cl)cn1)C(=O)N[C@@H](CCC(=O)O)C(=O)COc1c(F)c(F)cc(F)c1F [Example 29, (S)-4-((S)-2-(2-((5-chloropyridin-2-yl)amino)-2-oxoacetamido)propanamido)-5-oxo-6-(2,3,5,6-tetrafluorophenoxy)hexanoic acid]",IC50,Caspase-3,≥ 1 µM
same,IC50,Caspase 7,≥ 1 µM
same,IC50,Caspase-1,≤ 0.01 µM
same,IC50,Caspase 6,≥ 1 µM
"C[C@H](NC(=O)C(=O)Nc1ccccc1C#N)C(=O)N[C@@H](CCC(=O)O)C(=O)COc1c(F)c(F)cc(F)c1F [Example 32, (S)-4-((S)-2-(2-((2-cyanophenyl)amino)-2-oxoacetamido)propanamido)-5-oxo-6-(2,3,5,6-tetrafluorophenoxy)hexanoic acid]",IC50,Caspase-3,≥ 1 µM
same,IC50,Caspase 7,≥ 1 µM
same,IC50,Caspase-1,≤ 0.01 µM
same,IC50,Caspase 6,≥ 1 µM
"COc1ccc(NC(=O)C(=O)N[C@@H](C)C(=O)N[C@@H](CCC(=O)O)C(=O)COc2c(F)c(F)cc(F)c2F)cc1 [Example 24, (S)-4-((S)-2-(2-((4-methyoxyphenyl)amino)-2-oxoacetamido)propanamido)-5-oxo-6-(2,3,5,6-tetrafluorophenoxy)hexanoic acid]",IC50,Caspase-3,≥ 1 µM
same,IC50,Caspase 7,≥ 1 µM
same,IC50,Caspase-1,≤ 0.01 µM
same,IC50,Caspase 6,≥ 1 µM
"C[C@H](NC(=O)C(=O)Nc1cccc2cccnc12)C(=O)N[C@@H](CCC(=O)O)C(=O)COc1c(F)c(F)cc(F)c1F [Example 36, (S)-5-oxo-4-((S)-2-(2-oxo-2-(quinolin-8-ylamino)acetamido)propanamido)-6-(2,3,5,6-tetrafluorophenoxy)hexanoic acid]",IC50,Caspase-3,≥ 1 µM
same,IC50,Caspase 7,≥ 1 µM
same,IC50,Caspase-1,≤ 0.01 µM
same,IC50,Caspase 6,≥ 1 µM
"C[C@]12C=CC(=O)C=C1CC[C@@H]1[C@@H]2[C@@H](O)C[C@@]2(C)[C@H]1CC[C@]2(O)C(=O)CO [Prednisolone, reference compound]",all measured colon parameters,[1]; [2],significantly improved
same,animal health as reflected by body weight,[1]; [2],improved animal health by DAY 4
same,average inhibition of the histological parameters,[1]; [2],40%
same,reduction in the overall colonic score,[1]; [2],67%
same,"colon histology: Edema, Submucosal, Mean",[1]; [3],2.3
same,"colon histology: Erosion/ Ulceration, Mean",[1]; [3],2.9
same,"colon histology: Hyperplasia, Epithelial, Mean",[1]; [3],2.9
same,"colon histology: Necrosis, Mucosal/ Gland Loss, Mean",[1]; [3],2.9
same,"colon histology: SUM Score, Mean",[1]; [3],16.3
same,"colon histology: Subacute Inflammation, Mucosal/ Submucosal, Mean",[1]; [3],3.5
same,"colon histology: Subacute Inflammation, Transmural/ Serosal, Mean",[1]; [3],2.8
same,"average animal weight, Mean","[1]; Group 2, prednisolone 10 mg/kg once daily oral, study day 0",235 g
same,"average animal weight, Mean","[1]; Group 2, prednisolone 10 mg/kg once daily oral, study day 1",232 g
same,"average animal weight, Mean","[1]; Group 2, prednisolone 10 mg/kg once daily oral, study day 2",221 g
same,"average animal weight, Mean","[1]; Group 2, prednisolone 10 mg/kg once daily oral, study day 3",223 g
same,"average animal weight, Mean","[1]; Group 2, prednisolone 10 mg/kg once daily oral, study day 4",223 g
same,"average animal weight, Mean","[1]; Group 2, prednisolone 10 mg/kg once daily oral, study day 5",227 g
same,"average animal weight, Mean","[1]; Group 2, prednisolone 10 mg/kg once daily oral, study day 6",227 g
same,"average animal weight, Mean","[1]; Group 2, prednisolone 10 mg/kg once daily oral, study day 7",229 g
same,"average animal weight, Mean","[1]; Group 2, prednisolone 10 mg/kg once daily oral, study day −1",249 g
same,"average animal weight, Mean","[1]; Group 2, prednisolone 10 mg/kg once daily oral, study day −5",222 g
"C[C@H](NC(=O)C(=O)Nc1cccnc1)C(=O)N[C@@H](CCC(=O)O)C(=O)COc1c(F)c(F)cc(F)c1F [Example 40, (S)-5-oxo-4-((S)-2-(2-oxo-2-(pyridin-3-ylamino)acetamido)propanamido)-6-(2,3,5,6-tetrafluorophenoxy)hexanoic acid]",IC50,Caspase-3,≥ 1 µM
same,IC50,Caspase 7,≥ 1 µM
same,IC50,Caspase-1,≤ 0.01 µM
same,IC50,Caspase 6,≥ 1 µM
Cc1ccc(NC(=O)C(=O)N[C@@H](C)C(=O)N[C@@H](CCC(=O)O)C(=O)COc2c(F)c(F)cc(F)c2F)nc1 [Example 25],IC50,Caspase-3,≥ 1 µM
same,IC50,Caspase 7,≥ 1 µM
same,IC50,Caspase-1,≤ 0.01 µM
same,IC50,Caspase 6,≥ 1 µM
"C[C@H](NC(=O)C(=O)Nc1c(F)cccc1F)C(=O)N[C@@H](CCC(=O)O)C(=O)COc1cc(C(F)(F)F)nc(C(F)(F)F)n1 [Example 33, (S)-6-((2,6-bis(trifluoromethyl)pyrimidin-4-yl)oxy)-4-((S)-2-(2-((2,6-difluorophenyl)amino)-2-oxoacetamido)propanamido)-5-oxohexanoic acid]",IC50,Caspase-3,≥ 1 µM
same,IC50,Caspase 7,≥ 1 µM
same,IC50,Caspase-1,≤ 0.01 µM
same,IC50,Caspase 6,≥ 1 µM
"Cc1cc(C)nc(NC(=O)C(=O)N[C@@H](C)C(=O)N[C@@H](CCC(=O)O)C(=O)COc2c(F)c(F)cc(F)c2F)n1 [Example 41, (S)-4-((S)-2-(2-((4,6-dimethylpyrimidin-2-yl)amino)-2-oxoacetamido)propanamido)-5-oxo-6-(2,3,5,6-tetrafluorophenoxy)hexanoic acid]",IC50,Caspase-3,≥ 1 µM
same,IC50,Caspase 7,≥ 1 µM
same,IC50,Caspase-1,≤ 0.01 µM
same,IC50,Caspase 6,≥ 1 µM
"Cc1ccccc1NC(=O)C(=O)N[C@@H](C)C(=O)N[C@@H](CCC(=O)O)C(=O)COc1c(F)c(F)cc(F)c1F [Example 21, (S)-4-((S)-2-(2-((2-methylphenyl)amino)-2-oxoacetamido)propanamido)-5-oxo-6-(2,3,5,6-tetrafluorophenoxy)hexanoic acid]",IC50,Caspase-3,≥ 1 µM
same,IC50,Caspase 7,≥ 1 µM
same,IC50,Caspase-1,≤ 0.01 µM
same,IC50,Caspase 6,≥ 1 µM
"C[C@H](NC(=O)C(=O)Nc1ccc(OC(F)(F)F)cc1)C(=O)N[C@@H](CCC(=O)O)C(=O)COc1c(F)c(F)cc(F)c1F [Example 34, (S)-5-oxo-4-((S)-2-(2-oxo-2-((4-(trifluoromethoxy)phenyl)amino)acetamido)propanamido)-6-(2,3,5,6-tetrafluorophenoxy) hexanoic acid]",IC50,Caspase-3,≥ 1 µM
same,IC50,Caspase 7,≥ 1 µM
same,IC50,Caspase-1,≤ 0.01 µM
same,IC50,Caspase 6,≥ 1 µM
"C[C@H](NC(=O)C(=O)Nc1c(F)cccc1F)C(=O)N[C@H](CCC(=O)O)C(=O)COc1c(F)c(F)cc(F)c1F [Example 38, (R)-4-((S)-2-(2-((2,6-difluorophenyl)amino)-2-oxoacetamido)propanamido)-5-oxo-6-(2,3,5,6-tetrafluorophenoxy)hexanoic acid]",IC50,Caspase-3,≥ 1 µM
same,IC50,Caspase 7,≥ 1 µM
same,IC50,Caspase-1,≤ 0.01 µM
same,IC50,Caspase 6,≥ 1 µM
